# Data: patent US8710060B2, “Piperazinyl methyl phenyl cyclohexane compound” (Daiichi Sankyo Company, Limited, priority 2010, dated 2014)
# Structures can show the parent of a compound that is named as a salt.
# Tested on: longitudinal muscle strip from the duodenal smooth muscle layer
# Assay: Measurement of intestinal contractile activity (Magnus organ bath, cumulative dosing)
# Settings: Oryctolagus cuniculus; male NZW rabbit duodenal longitudinal muscle strip, Krebs solution 31° C., test compound 0.01 nM to 10 μM cumulative dosing; contraction by carbachol 10 μM taken as 100%
# Protocol: Bioactivity Test (Measurement of Intestinal Contractile Activity)
# A male NZW rabbit (body weight: 2.5 to 3.0 kg, KITAYAMA LABES CO., LTD., NAGANO) was used.
# Carbachol (carbamylcholine chloride, Sigma-Aldrich Japan K.K.) was purchased and used. Each test compound was dissolved in dimethyl sulfoxide (DMSO, Sigma-Aldrich Japan K.K.), and then suspended in physiological saline. Carbachol was dissolved in physiological saline.
# (3) Experimental Method and Results
# Pentobarbital sodium (Kyoritsu Seiyaku Corporation, Osaka) was administered to the rabbit through the auricular vein, and the rabbit was euthanized by exsanguination under anesthesia. Thereafter, the duodenum was excised from the rabbit and rapidly rinsed with Krebs solution (NaCl 120.0 mM, KCl 4.7 mM, CaCl2 2.4 mM, KH2PO4 1.0 mM, MgSO4 1.2 mM, NaHCO3 24.5 mM, and glucose 5.6 mM, pH 7.4). Then, a longitudinal muscle strip (length: 10 mm, width: 3 mm) was prepared from the duodenal smooth muscle layer obtained by stripping off the mucosal layer from the duodenum. The prepared strip was mounted in an organ bath and contained in 20 mL of Krebs solution gassed with 95% O2 and 5% CO2 at 31° C. so as to suppress excessive locomotion, and a tension of 1 g was applied thereto. The strip was left to stand for 1 hour or more while replacing the Krebs solution every 15 minutes until the strip was equilibrated. Before starting the experiment, stimulation with carbachol at 10 μM was repeatedly applied until a reproducible contraction was obtained. The contractile activity was measured with an FD pickup (TB-611T, Nihon Kohden Corporation, Tokyo) and recorded on a pen recorder (RECTI HORIZ-8K, Sanei, Tokyo). Each test compound was added to the Krebs solution at 0.01 nM to 10 μM, and the strip was contracted by cumulative dosing. The contractile activity at each concentration was determined when the contractile activity at the time of stimulation with carbachol at 10 μM was taken as 100%, and the EC50 value of each test compound was determined. The EC50 values are shown below.
row,SMILES,EC50
1,"Cc1cc(N(C)C(=O)[C@H]2CC[C@H](Oc3cccc(COC[C@@H](C)O)c3)CC2)ccc1CN1CCN[C@@H](C)C1 [Example 56, Trans-4-[3-({[(2R)-2-hydroxypropyl]oxy}methyl)phenoxy]-N-methyl-N-(3-methyl-4-{[(3S)-3-methylpiperazin-1-yl]methyl}phenyl)cyclohexanecarboxamide hydrochloride]",1.2 nM
2,"Cc1cc(N(C)C(=O)[C@H]2CC[C@H](Oc3cccc(CC(=O)NC(C)C)c3)CC2)ccc1CN1CCN[C@@H](C)C1 [Example 30, Trans-4-{3-[2-(isopropylamino)-2-oxoethyl]phenoxy}-N-methyl-N-(3-methyl-4-{[(3S)-3-methylpiperazin-1-yl]methyl}phenyl)cyclohexanecarboxamide hydrochloride]",3 nM
3,"Cc1cc(N(C)C(=O)[C@H]2CC[C@H](Oc3cccc(CC(=O)NC(C)(C)C)c3)CC2)ccc1CN1CCN[C@@H](C)C1 [Example 33, Trans-4-{3-[2-(tert-butylamino)-2-oxoethyl]phenoxy}-N-methyl-N-(3-methyl-4-{[(3S)-3-methylpiperazin-1-yl]methyl}phenyl)cyclohexanecarboxamide]",1.5 nM
4,"Cc1cc(N(C)C(=O)[C@H]2CC[C@H](Nc3cccc(COCC(C)(C)O)c3)CC2)ccc1CN1CCN[C@@H](C)C1 [Example 58, Trans-4-({3-[(2-hydroxy-2-methylpropoxy)methyl]phenyl}amino)-N-methyl-N-(3-methyl-4-{[(3S)-3-methylpiperazin-1-yl]methyl}phenyl)cyclohexanecarboxamide hydrochloride]",0.9 nM
5,"Cc1cc(N(C)C(=O)[C@H]2CC[C@H](Oc3cccc(COCC(C)(C)O)c3)CC2)ccc1CN1CCN[C@@H](C)C1 [Example 57, Trans-4-{3-[(2-hydroxy-2-methylpropoxy)methyl]phenoxy}-N-methyl-N-(3-methyl-4-{[(3S)-3-methylpiperazin-1-yl]methyl}phenyl)cyclohexanecarboxamide hydrochloride]",11.3 nM
6,"C[C@H]1CN(Cc2ccc(N(C)C(=O)[C@H]3CC[C@H](Oc4ccc(F)cc4)CC3)cc2)CCN1 [Example 1, Trans-4-(4-fluorophenoxy)-N-methyl-N-(4-{[(3S)-3-methylpiperazin-1-yl]methyl}phenyl)cyclohexanecarboxamide]",28 nM
7,"Cc1cc(N(C)C(=O)[C@H]2CC[C@H](Oc3cccc(CO)c3)CC2)ccc1CN1CCN[C@@H](C)C1 [Example 5, Trans-4-[3-(hydroxymethyl)phenoxy]-N-methyl-N-(3-methyl-4-{[(3S)-3-methylpiperazin-1-yl]methyl}phenyl)cyclohexanecarboxamide hydrochloride]",7.3 nM
8,"COCCOCc1cccc(O[C@H]2CC[C@H](C(=O)N(C)c3ccc(CN4CCN[C@@H](C)C4)c(C)c3)CC2)c1 [Example 53, Trans-4-{3-[(2-methoxyethoxy)methyl]phenoxy}-N-methyl-N-(3-methyl-4-{[(3S)-3-methylpiperazin-1-yl]methyl}phenyl)cyclohexanecarboxamide hydrochloride]",6.8 nM
9,"Cc1cc(N(C)C(=O)[C@H]2CC[C@H](Oc3ccc(F)cn3)CC2)ccc1CN1CCN[C@@H](C)C1 [Example 4, Trans-4-[(5-fluoropyridin-2-yl)oxy]-N-methyl-N-(3-methyl-4-{[(3S)-3-methylpiperazin-1-yl]methyl}phenyl)cyclohexanecarboxamide hydrochloride]",2.5 nM
10,"Cc1cc(N(C)C(=O)[C@H]2CC[C@H](Oc3cccc(CC(=O)N(C)C(C)C)c3)CC2)ccc1CN1CCN[C@@H](C)C1 [Example 34, Trans-4-(3-{2-[isopropyl(methyl)amino]-2-oxoethyl}phenoxy)-N-methyl-N-(3-methyl-4-{[(3S)-3-methylpiperazin-1-yl]methyl}phenyl)cyclohexanecarboxamide]",2.1 nM
11,"Cc1cc(N(C)C(=O)[C@H]2CC[C@H](Oc3cccc(CS(C)(=O)=O)c3)CC2)ccc1CN1CCN[C@@H](C)C1 [Example 42, hydrochloride]",4.8 nM
12,"Cc1cc(N(C)C(=O)[C@H]2CC[C@H](Oc3ccnc(C#N)c3)CC2)ccc1CN1CCN[C@@H](C)C1 [Example 22, Trans-4-[(2-cyanopyridin-4-yl)oxy]-N-methyl-N-(3-methyl-4-{[(3S)-3-methylpiperazin-1-yl]methyl}phenyl)cyclohexanecarboxamide hydrochloride]",4.8 nM
13,"CCOC(=O)Cc1cccc(O[C@H]2CC[C@H](C(=O)N(C)c3ccc(CN4CCN[C@@H](C)C4)c(C)c3)CC2)c1 [Example 16, Ethyl [3-({trans-4-[methyl(3-methyl-4-{[(3S)-3-methylpiperazin-1-yl]methyl}phenyl)carbamoyl]cyclohexyl}oxy)phenyl]acetate hydrochloride]",2.4 nM
